Data reported in US20100292289A1 (priority 2007, published 2010).
Where two headings read alike, the source gives them in different places.

How the values were obtained:
[1] = tested on: non-insulin dependent diabetic mellitus (NIDDM) male mice (C57BL/KsJ-db/db Jcl); experiment: In vivo analysis in the db/db mouse (serum insulin, serum glucose, weight); details: for percentage increase in insulin levels: FIG. 1; for percentage decrease in glucose levels: FIG. 2; for percentage decrease in weight: FIG. 3
Experimental: […] All animals were allowed free access to normal laboratory chow and water.
Serum glucose and insulin levels were determined by Enzymatic Method (Mutaratase-GOD) and ELISA (mouse insulin assay kit) from orbital sinus blood samples obtained before (pretreatment) and 90 minutes after the last vehicle and/or test substance administration (postreatment) and percent change was determined.

GLP-1 receptor [2] = molecular target: T1, GLP-1 receptor (Homo sapiens, UniProt P43220); experiment: FLIPR calcium flux assay, agonist format, GLP-1; format: cell-based; details: Emax of reference ligand Glucagon as 100%
Experimental: (§1) A FLIPR assay was conducted to monitor agonist and antagonist selectivity for compounds of the invention against the CBI and GLP-1 receptors. Percentage activation and percentage inhibition values were determined for each compound on each of the GPCRs listed above. Agonist selectivity was determined upon initial addition of compounds followed by 10 minute incubation at 25° C. Following compound incubation, reference agonists were added at EC80 to determine percentage inhibition.
(§2) Agonist percentage activation determinations were obtained by assaying sample compounds and referencing the Emax control for each of the GPCRs profiled. Antagonist percentage inhibition determinations were obtained by assaying sample compounds and referencing the control EC80 wells for each of the GPCRs profiled. The protocol design is as follows:
(§3) Unless specified otherwise, all sample compounds were diluted in 100% anhydrous DMSO including all serial dilutions. Occasionally sample compounds were provided in a different solvent, in this case all master stock dilutions were performed in the specified diluent. All control wells contained identical solvent final concentrations as sample compound wells.
(§4) Sample compounds were transferred from a master stock solution into a daughter plate that was used in the assay. Each sample compound was diluted into assay buffer (1×HBSS with 20 mM HEPES) at an appropriate concentration to obtain final concentrations.
(§5) All sample compounds were plated at 1 μM in duplicate for assaying against all GPCRs. Reference agonists were handled as mentioned above serving as assay control. These reference agonists were handled as described above for both EMax and EC80 control wells. Assay was read for 90 seconds using the FLIPRTETRA. (This assay run added sample compounds and reference agonist to respective rows.) At the completion of the first “Single Addition” assay run, assay plate was removed from the FLIPRTetra and placed at 25° C. for 10 minutes.
(§6) All plates were subjected to appropriate baseline corrections. Once baseline corrections were processed, maximum fluorescence values were exported and data manipulated to calculate percentage activation, percentage inhibition, Z′, EC50, and IC50. Percentage activation data was calculated using Emax as 100% control. Percentage inhibition was calculated using EC80 as 0% inhibition.

CB1 receptor [3] = molecular target: T2, CB1 receptor (Homo sapiens, UniProt P21554); experiment: FLIPR calcium flux assay, agonist format, CB1; format: cell-based; details: Emax of reference agonist CP-55,940 as 100%
Experimental: as §1, §2, §3, §4, §5, §6

GLP-1 receptor [4] = molecular target: T1, GLP-1 receptor; experiment: FLIPR calcium flux assay, antagonist format, GLP-1; format: cell-based; details: 1 μM, reference ligand Glucagon at EC80 as 0% inhibition; read-out: % Inhibition Antagonist GLP-1
Experimental: as §1, §2, §3, §4
(§7) Using the EC50 values determined previously, stimulated all pre-incubated sample compound and reference antagonist (if applicable) wells with EC80 of reference agonist. Read for 90 seconds using the FLIPRTETRA. (This assay added reference agonist to respective wells—then fluorescence measurements were collected to calculate percentage inhibition.)
as §6

CB1 receptor [5] = molecular target: T2, CB1 receptor; experiment: FLIPR calcium flux assay, antagonist format, CB1; format: cell-based; details: reference agonist CP-55,940 at EC80 as 0% inhibition
Experimental: as §1, §2, §3, §4, §7, §6

in vivo = experiment: in vivo; set-up: species or system Sprague-Dawley rats; details: rat; for bioavailability: male, Sprague-Dawley, po, 20 mg/kg; for half-life: male Sprague-Dawley rats
Experimental: The pharmacokinetics of compounds 4a, 6a, and 12 was evaluated in male Sprague-Dawley rats (n=3) following single intravenous (i.v., 1 mg/kg) or oral (p.o., 20 mg/kg) doses.

[6] = 200 mg/kg oral gavage once daily for three days
[7] = iv, single i.v. dose 1 mg/kg, read-out: t1/2 (i.v., hr) (converted)
[8] = single oral dose 20 mg/kg, read-out: t1/2 (p.o., hr) (converted)

T1 sequence (P43220 24-463): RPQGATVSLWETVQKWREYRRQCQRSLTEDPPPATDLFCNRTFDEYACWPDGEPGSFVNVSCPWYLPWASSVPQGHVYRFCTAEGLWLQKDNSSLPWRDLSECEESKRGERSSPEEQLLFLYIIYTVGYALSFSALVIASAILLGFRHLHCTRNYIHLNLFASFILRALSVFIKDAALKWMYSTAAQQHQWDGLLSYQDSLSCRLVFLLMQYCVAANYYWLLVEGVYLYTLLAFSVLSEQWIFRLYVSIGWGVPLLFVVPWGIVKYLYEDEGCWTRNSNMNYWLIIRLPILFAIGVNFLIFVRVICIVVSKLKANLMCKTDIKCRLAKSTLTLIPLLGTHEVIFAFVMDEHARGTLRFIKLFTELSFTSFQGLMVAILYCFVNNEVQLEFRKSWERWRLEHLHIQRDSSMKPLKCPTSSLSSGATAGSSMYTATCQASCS
T2 sequence (P21554 whole entry): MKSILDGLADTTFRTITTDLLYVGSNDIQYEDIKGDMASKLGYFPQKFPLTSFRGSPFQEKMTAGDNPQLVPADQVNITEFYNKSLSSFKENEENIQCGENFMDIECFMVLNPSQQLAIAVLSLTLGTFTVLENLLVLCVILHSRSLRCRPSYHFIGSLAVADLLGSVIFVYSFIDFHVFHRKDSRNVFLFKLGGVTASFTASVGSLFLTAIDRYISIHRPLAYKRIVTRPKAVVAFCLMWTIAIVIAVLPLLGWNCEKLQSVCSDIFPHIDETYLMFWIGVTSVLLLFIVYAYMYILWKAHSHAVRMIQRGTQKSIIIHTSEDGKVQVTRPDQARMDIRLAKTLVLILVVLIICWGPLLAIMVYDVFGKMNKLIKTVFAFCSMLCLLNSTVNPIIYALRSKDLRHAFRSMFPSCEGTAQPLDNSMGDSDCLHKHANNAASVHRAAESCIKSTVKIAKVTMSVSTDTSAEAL

Structure (SMILES): CC(C)Cc1ccc([C@H](C)C(=O)N(C)CC[C@H](Oc2ccc(C(F)(F)F)cc2)c2ccccc2)cc1 [Compound 12b]
- percentage increase in insulin levels ([1]; 100 mg/kg oral gavage once daily for three days): significant increase
- percentage increase in insulin levels [1, 6]: significant increases
- percentage decrease in glucose levels [1, 6]: significant decreases
- percentage decrease in weight [1, 6]: significant decreases
- activation at 1 µM (GLP-1 receptor [2]): 24.5%
- activation at 1 µM (CB1 receptor [3]): 8.3%
- inhibition at 1 µM (GLP-1 receptor [4]): 5.9%
- inhibition at 1 µM (CB1 receptor [5]): 1.6%

Structure (SMILES): C[C@H](C(=O)NCC[C@@H](Oc1ccc(C(F)(F)F)cc1)c1ccccc1)c1cccc(C(=O)c2ccccc2)c1 [Compound 6a]
- percentage increase in insulin levels [1, 6]: significant increases
- percentage decrease in glucose levels [1, 6]: significant decreases
- percentage decrease in weight [1, 6]: significant decreases
- bioavailability (in vivo): 14.8%
- half-life (in vivo; [7]): 1.4 h
- half-life (in vivo; [8]): 2.1 h
- activation at 1 µM (GLP-1 receptor [2]): 38.6%
- activation at 1 µM (CB1 receptor [3]): 4.2%
- inhibition at 1 µM (GLP-1 receptor [4]): -7.2%
- inhibition at 1 µM (CB1 receptor [5]): 77.9%

Structure (SMILES): CC(C)Cc1ccc([C@H](C)C(=O)N(C)CCC(Oc2ccc(C(F)(F)F)cc2)c2ccccc2)cc1 (stereo partly drawn) [Compound 12]
- bioavailability (in vivo): 6.5%
- half-life (in vivo; [7]): 1.7 h
- half-life (in vivo; [8]): 1.4 h
- activation at 1 µM (GLP-1 receptor [2]): 44.6%
- activation at 1 µM (CB1 receptor [3]): 4.1%
- inhibition at 1 µM (GLP-1 receptor [4]): -14.9%
- inhibition at 1 µM (CB1 receptor [5]): 3.2%

Structure (SMILES): CN(C)C(=N)N=C(N)N [metformin, reference compound]
- percentage increase in insulin levels ([1]; 300 mg/kg oral): does not show an increase
- percentage decrease in glucose levels ([1]; 300 mg/kg oral): significant decrease
- percentage decrease in weight ([1]; 300 mg/kg oral): does not show a decrease

Structure (SMILES): CC(C)Cc1ccc([C@H](C)C(=O)N(C)CC[C@@H](Oc2ccc(C(F)(F)F)cc2)c2ccccc2)cc1 [Compound 12a]
- percentage increase in insulin levels [1, 6]: significant increases
- percentage decrease in glucose levels [1, 6]: significant decreases
- percentage decrease in weight [1, 6]: significant decreases
- activation at 1 µM (GLP-1 receptor [2]): 7.6%
- activation at 1 µM (CB1 receptor [3]): 3.6%
- inhibition at 1 µM (GLP-1 receptor [4]): 4.5%
- inhibition at 1 µM (CB1 receptor [5]): 52.2%

Structure (SMILES): CC(C)Cc1ccc([C@H](C)C(=O)NCC[C@@H](Oc2ccc(C(F)(F)F)cc2)c2ccccc2)cc1 [Compound 4a]
- bioavailability (in vivo): 5.1%
- half-life (in vivo; [7]): 0.6 h
- half-life (in vivo; [8]): 1 h
- activation at 1 µM (GLP-1 receptor [2]): 39.9%
- activation at 1 µM (CB1 receptor [3]): 3.2%
- inhibition at 1 µM (GLP-1 receptor [4]): -21.8%
- inhibition at 1 µM (CB1 receptor [5]): 7.7%
